Measured values as given in patent publication US10548318B2, “N-(tetrazol-5-yl)- and N-(triazol-5-yl)arylcarboxamide derivatives with herbicidal action” (Bayer CropScience Aktiengesellschaft, priority 2015, dated 2020).

Columns and labels:
Type in all cases: in vivo
[1] = tested on: Polygonum convolvulus (POLCO); experiment: Comparative experiment in pre-emergence; conditions: dosage 320 g/ha
Source text: (§1) Seeds of monocotyledonous and dicotyledonous weed plants and crop plants are laid out in wood-fiber pots in sandy loam and covered with soil. The compounds of the invention, formulated in the form of wettable powders (WP) or as emulsion concentrates (EC), are then applied to the surface of the covering soil in the form of an aqueous suspension or emulsion at a water application rate equating to 600 to 800 I/ha, with addition of 0.2% wetting agent. After the treatment, the pots are placed in a greenhouse and kept under good growth conditions for the trial plants. The damage to the test plants is scored visually after a test period of 3 weeks by comparison with untreated controls (herbicidal activity in percent (%): 100% activity=the plants have died, 0% activity=like control plants). Here, for example, the compounds Nos. 1-384, 1-390, 3-384, 5-384, 19-384, 9-390, 21-384, 23-384 and 28-390, at an application rate of 320 g/ha, each show an activity of at least 80% against Stellaria media and Amaranthus retroflexus.
For comparative purposes, the herbicidal activity of some compounds according to the invention and the most structurally similar compounds known from the prior art were tested.

Stellaria media [2] = experiment: Pre-emergence herbicidal action against harmful plants; conditions: 504 h, application rate 320 g/ha, visual scoring after 3 weeks vs untreated controls, read-out: herbicidal activity in percent against Stellaria media
Source text: as §1

Amaranthus retroflexus = experiment: as above; conditions: 504 h, application rate 320 g/ha, visual scoring after 3 weeks vs untreated controls, read-out: herbicidal activity in percent against Amaranthus retroflexus
Source text: as §1

Stellaria media [3] = experiment: Post-emergence herbicidal action against harmful plants; conditions: 504 h, application rate 80 g/ha, visual assessment after about 3 weeks vs untreated controls, read-out: herbicidal action in percent against Stellaria media
Procedure: (§2) Seeds of monocotyledonous and dicotyledonous weed and crop plants are laid out in sandy loam soil in wood-fiber pots, covered with soil and cultivated in a greenhouse under good growth conditions. 2 to 3 weeks after sowing, the test plants are treated at the one-leaf stage. The compounds of the invention, formulated in the form of wettable powders (WP) or as emulsion concentrates (EC), are then sprayed onto the green parts of the plants in the form of an aqueous suspension or emulsion at a water application rate equating to 600 to 800 I/ha, with addition of 0.2% wetting agent. After the test plants have been left to stand in the greenhouse under optimal growth conditions for about 3 weeks, the action of the preparations is assessed visually in comparison to untreated controls (herbicidal action in percent (%): 100% activity=the plants have died, 0% activity=like control plants). Here, for example, the compounds Nos. 1-384, 1-390, 3-384, 5-384, 19-384, 9-390, 21-384, 23-384, 28-390 and 32-384, at an application rate of 80 g/ha, each show an activity of at least 80% against Stellaria media and Veronica persica.

Veronica persica = experiment: as above; conditions: 504 h, application rate 80 g/ha, visual assessment after about 3 weeks vs untreated controls, read-out: herbicidal action in percent against Veronica persica
Procedure: as §2

Row | Structure (SMILES) | Herbicidal activity against POLCO [1] | pest or weed control at 320 g/ha (Stellaria media [2]) | pest or weed control at 320 g/ha (Amaranthus retroflexus) | pest or weed control at 80 g/ha (Stellaria media [3]) | pest or weed control at 80 g/ha (Veronica persica)
1 | CCOC(=O)OC(C)n1nnn(C)c1=NC(=O)c1ccc(C)c(S(C)(=O)=O)c1Cl (stereo not shown) [No. 1-390, 1-(5-{[2-chloro-4-methyl-3-(methylsulfonyl)benzoyl]imino}-4-methyl-4,5-dihydro-1H-tetrazol-1-yl)ethyl ethyl carbonate] | 100% | ≥ 80% | ≥ 80% | ≥ 80% | ≥ 80%
2 | CCOC(=O)OC(C)OC(=Nc1nnnn1C)c1ccc(C)c(S(C)(=O)=O)c1Cl (stereo not shown) [No. 19-390, 1-[(ethoxycarbonyl)oxy]ethyl 2-chloro-4-methyl-3-(methylsulfonyl)-N-(1-methyl-1H-tetrazol-5-yl)benzenecarboximidate] | 100% |  |  |  | 
3 | CCOC(=O)OC(C)N(C(=O)c1ccc(C)c(S(C)(=O)=O)c1Cl)c1nnnn1C (stereo not shown) [No. 28-390, 1-{[2-chloro-4-methyl-3-(methylsulfonyl)benzoyl](1-methyl-1H-tetrazol-5-yl)amino}ethyl ethyl carbonate] | 90% | ≥ 80% | ≥ 80% | ≥ 80% | ≥ 80%
4 | CCOC(=O)OC(C)OC(=Nc1nnnn1C)c1ccc(C(F)(F)F)c(SC)c1Cl (stereo not shown) [No. 19-384, 1-[(ethoxycarbonyl)oxy]ethyl 2-chloro-3-(methylsulfanyl)-N-(1-methyl-1H-tetrazol-5-yl)-4-(trifluoromethyl)benzenecarboximidate] |  | ≥ 80% | ≥ 80% | ≥ 80% | ≥ 80%
5 | CSc1c(C(F)(F)F)ccc(C(=Nc2nnnn2C)OC(C)OC(=O)OC2CCCCC2)c1Cl (stereo not shown) [No. 23-384, 1-{[(cyclohexyloxy)carbonyl]oxy}ethyl 2-chloro-3-(methylsulfanyl)-N-(1-methyl-1H-tetrazol-5-yl)-4-(trifluoromethyl)benzenecarboximidate] | 90% | ≥ 80% | ≥ 80% | ≥ 80% | ≥ 80%
6 | COC(=O)OC(C)OC(=Nc1nnnn1C)c1ccc(C(F)(F)F)c(SC)c1Cl (stereo not shown) [No. 21-384, 1-[(Methoxycarbonyl)oxy]ethyl 2-chloro-3-(methylsulfanyl)-N-(1-methyl-1H-tetrazol-5-yl)-4-(trifluoromethyl)benzenecarboximidate] | 100% | ≥ 80% | ≥ 80% | ≥ 80% | ≥ 80%
7 | COC(=O)OC(C)n1nnn(C)c1=NC(=O)c1ccc(C(F)(F)F)c(SC)c1Cl (stereo not shown) [No. 3-384, 1-(5-{[2-chloro-3-(methylsulfanyl)-4-(trifluoromethyl)benzoyl]imino}-4-methyl-4,5-dihydro-1H-tetrazol-1-yl)ethyl methyl carbonate] |  | ≥ 80% | ≥ 80% | ≥ 80% | ≥ 80%
8 | CSc1c(C(F)(F)F)ccc(C(=O)N=c2n(C)nnn2C(C)OC(=O)OC2CCCCC2)c1Cl (stereo not shown) [No. 5-384, 1-(5-{[2-chloro-3-(methylsulfanyl)-4-(trifluoromethyl)benzoyl]imino}-4-methyl-4,5-dihydro-1H-tetrazol-1-yl)ethyl cyclohexyl carbonate] |  | ≥ 80% | ≥ 80% | ≥ 80% | ≥ 80%
9 | CCOC(=O)OC(C)n1nnn(C)c1=NC(=O)c1ccc(C(F)(F)F)c(SC)c1Cl (stereo not shown) [No. 1-384, 1-(5-{[2-chloro-3-(methylsulfanyl)-4-(trifluoromethyl)benzoyl]imino}-4-methyl-4,5-dihydro-1H-tetrazol-1-yl)ethyl ethyl carbonate] |  | ≥ 80% | ≥ 80% | ≥ 80% | ≥ 80%
